Here are results for one molecule from publication PMC6128652, “Structure of the Cladosporium fulvum Avr4 effector in complex with (GlcNAc)6 reveals the ligand-binding mechanism and uncouples its intrinsic function from recognition by the Cf-4 resistance protein” (PLoS Pathogens, 2018).

What all share (details): n = 3
In assay [1] the target is T1, WT-CfAvr4 (Fulvia fulva, UniProt Q00363).
T1 construct: gene AVR4; true mature form Lys30-Gln115, N-terminal two 6x His tags and rhinovirus 3C site (tag retained, by contrast with the w/o tag row), E. coli Rosetta-gami B
The assay can be described thus: Isothermal titration calorimetry, reverse titration with concentrated CfAvr4 titrated into dilute (GlcNAc)6, 10 mM Bis-Tris, pH 6.5, 100 mM NaCl; temperature not given. It counts as binding. An excerpt:
(§1) The parameters remained similar irrespectively of whether or not the purification tag was removed from the protein or whether a reverse titration was run, in which concentrated CfAvr4 was titrated into a dilute solution of (GlcNAc)6, with no evidence of allosteric or dimer dissociation (S2 Table and S6 Fig). The values are also in good agreement with previously reported data except for the stoichiometric ratio [9]. […] Due to this discrepancy, we took great care to verify the concentration of CfAvr4 using a Bradford assay, and quantitated the carbohydrate concentration.
All ITC experiments were performed on a TA Instruments low volume NanoITC with a 186uL reaction cell and a reference cell filled with degassed Milli-Q grade water. Reactions were run in a buffer containing 10mM Bis-Tris, pH 6.5, 100 mM NaCl. The reservoir solution was filled with protein solution and continuously stirred while Chitin hexasaccharide solutions titrated in 2.5μL aliquots for 19 injections, with an initial 1μL injection, for a total injection volume of 48.5μL. […] The integrated heats, after correction for the heat of dilution were analyzed using the NanoAnalyze software from ITC Technologies. […]

Assay [2] concerns the target T2, Y67F (Fulvia fulva, UniProt Q00363, Y67F).
T2 construct: gene AVR4; true mature form Lys30-Gln115, E. coli Rosetta-gami B
T2 sequence (Q00363 30-115 Y67F): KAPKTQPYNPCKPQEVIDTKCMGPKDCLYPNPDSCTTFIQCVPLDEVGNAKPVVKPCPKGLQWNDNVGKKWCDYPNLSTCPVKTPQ
The assay can be described thus: Isothermal titration calorimetry, (GlcNAc)6 titrated into protein in 10 mM Bis-Tris, pH 6.5, 100 mM NaCl, individual binding site model; temperature not given. How it is done:
(§2) All ITC experiments were performed on a TA Instruments low volume NanoITC with a 186uL reaction cell and a reference cell filled with degassed Milli-Q grade water. Reactions were run in a buffer containing 10mM Bis-Tris, pH 6.5, 100 mM NaCl. The reservoir solution was filled with protein solution and continuously stirred while Chitin hexasaccharide solutions titrated in 2.5μL aliquots for 19 injections, with an initial 1μL injection, for a total injection volume of 48.5μL. The carbohydrate solutions were made by dissolving the dry powder in buffer to a concentration of 20mM (confirmed using methods described above) and then diluted to the working concentration using the final buffer exchange flow through to match the buffers as closely as possible. The integrated heats, after correction for the heat of dilution were analyzed using the NanoAnalyze software from […]. An individual binding site model was used to fit the binding isotherm. All experiments were replicated a minimum of three times.
as §1
(§3) A stock solution of the monomer of N-acetylglucosamine was prepared by dissolving the dry powder in a buffer containing 10 mM Bis-Tris, pH 6.5, 100 mM NaCl to a concentration of 0.100 g/L using analytic techniques. Standard solution of 0, 0.010, 0.025, 0.050, 0.075 g/L were prepared by serial dilutions. Using glass test tubes and pipets, 100 μL of each standard was mixed with 300μL of concentrated sulfuric acid and vortexed for 10 sec to mix. Solutions were incubated at RT for 10 min and then placed on ice to stop the reaction. […] Analytically prepared solution of the di- and tri-saccharide scaled linearly to the calibration curve. To determine the concentration of the chitin hexasaccharide solutions used in ITC, the solutions were diluted into the dynamic range of the calibration curve (S12 Fig) and subjected to the above procedure.
Background: Isothermal titration calorimetry measures the heat released or taken up as one component is titrated into another.

The target in assay [3] is T3, D94A (Fulvia fulva, UniProt Q00363, D94A).
T3 construct: gene AVR4; true mature form Lys30-Gln115, E. coli Rosetta-gami B
T3 sequence (Q00363 30-115 D94A): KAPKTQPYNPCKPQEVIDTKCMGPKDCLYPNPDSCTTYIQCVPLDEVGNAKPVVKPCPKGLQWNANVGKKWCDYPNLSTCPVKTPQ
Described as above. Here is the method: as §2, §1, §3

The target of assay [4] is T4, Y103F (Fulvia fulva, UniProt Q00363, Y103F).
T4 construct: gene AVR4; true mature form Lys30-Gln115, E. coli Rosetta-gami B
T4 sequence (Q00363 30-115 Y103F): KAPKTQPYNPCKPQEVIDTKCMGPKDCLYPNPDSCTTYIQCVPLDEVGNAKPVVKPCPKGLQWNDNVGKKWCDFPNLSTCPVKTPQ
The description is as above. How it is done:
as §2, §1, §3

Assay [5] has as its target T5, N95A (Fulvia fulva, UniProt Q00363, N95A).
T5 construct: gene AVR4; true mature form Lys30-Gln115, E. coli Rosetta-gami B
T5 sequence (Q00363 30-115 N95A): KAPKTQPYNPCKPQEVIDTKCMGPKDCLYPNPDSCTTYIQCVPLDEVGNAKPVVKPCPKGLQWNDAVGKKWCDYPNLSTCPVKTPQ
The description is as above. How it is done:
as §2, §1, §3

Assay [6] addresses T1, WT-CfAvr4. The assay is described as above. How it is done: as §2, §1, §3
In assay [7] the target is T6, M51A (Fulvia fulva, UniProt Q00363, M51A).
T6 construct: gene AVR4; true mature form Lys30-Gln115, E. coli Rosetta-gami B
T6 sequence (Q00363 30-115 M51A): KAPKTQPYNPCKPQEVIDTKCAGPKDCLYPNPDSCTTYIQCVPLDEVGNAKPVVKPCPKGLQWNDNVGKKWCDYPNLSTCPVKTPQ
Described as above. Here is the method:
as §2, §1, §3

Assay [8] addresses T7, K84A (Fulvia fulva, UniProt Q00363, K84A).
T7 construct: gene AVR4; true mature form Lys30-Gln115, E. coli Rosetta-gami B
T7 sequence (Q00363 30-115 K84A): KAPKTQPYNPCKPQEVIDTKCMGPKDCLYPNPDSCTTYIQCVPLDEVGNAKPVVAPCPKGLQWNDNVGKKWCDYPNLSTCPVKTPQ
Described as above. Here is the method: as §2, §1, §3

The target in assay [9] is T8, WT-CfAvr4 w/o tag (Fulvia fulva, UniProt Q00363).
T8 construct: gene AVR4; true mature form Lys30-Gln115, purification tag removed with rhinovirus 3C protease, E. coli Rosetta-gami B
The assay is described as above. How it is done:
as §2, §1, §3

The target in assay [10] is T9, P53A (Fulvia fulva, UniProt Q00363, P53A).
T9 construct: gene AVR4; true mature form Lys30-Gln115, E. coli Rosetta-gami B
T9 sequence (Q00363 30-115 P53A): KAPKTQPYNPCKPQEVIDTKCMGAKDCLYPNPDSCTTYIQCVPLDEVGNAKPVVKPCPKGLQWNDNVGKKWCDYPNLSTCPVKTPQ
Described as above. Here is the method: as §2, §1, §3

Assay [11] addresses T10, P87A (Fulvia fulva, UniProt Q00363, P87A).
T10 construct: gene AVR4; true mature form Lys30-Gln115, E. coli Rosetta-gami B
T10 sequence (Q00363 30-115 P87A): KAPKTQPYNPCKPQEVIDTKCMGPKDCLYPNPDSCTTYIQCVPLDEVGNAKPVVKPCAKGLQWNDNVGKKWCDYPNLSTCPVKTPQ
The description is as above. How it is done:
as §2, §1, §3

Assay [12] has as its target T11, Q69N (Fulvia fulva, UniProt Q00363, Q69N).
T11 construct: gene AVR4; true mature form Lys30-Gln115, E. coli Rosetta-gami B
T11 sequence (Q00363 30-115 Q69N): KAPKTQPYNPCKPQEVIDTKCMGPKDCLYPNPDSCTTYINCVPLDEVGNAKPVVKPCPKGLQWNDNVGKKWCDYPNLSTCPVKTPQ
Described as above. How it is done: as §2, §1, §3

The target in assay [13] is T12, N93A (Fulvia fulva, UniProt Q00363, N93A).
T12 construct: gene AVR4; true mature form Lys30-Gln115, E. coli Rosetta-gami B
T12 sequence (Q00363 30-115 N93A): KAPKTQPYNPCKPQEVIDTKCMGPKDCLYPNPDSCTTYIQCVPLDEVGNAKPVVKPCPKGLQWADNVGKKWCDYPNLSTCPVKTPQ
The assay is described as above. Here is the method: as §2, §1, §3

Each structure is given as a SMILES string.

T1 sequence (Q00363 30-115): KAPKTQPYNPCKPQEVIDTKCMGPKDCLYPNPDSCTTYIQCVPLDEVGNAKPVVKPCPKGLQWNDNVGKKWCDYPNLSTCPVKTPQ
T8 sequence (Q00363 30-115): as above

A word on the Kd: it is the equilibrium constant for the complex coming apart. A higher Kd goes with a looser complex. In the case of `CC(=O)N[C@H]1[C@H](O[C@H]2[C@H](O)[C@@H](NC(C)=O)[C@H](O[C@H]3[C@H](O)[C@@H](NC(C)=O)C(O)O[C@@H]3CO)O[C@@H]2CO)O[C@H](CO)[C@@H](O[C@@H]2O[C@H](CO)[C@@H](O[C@@H]3O[C@H](CO)[C@@H](O[C@@H]4O[C@H](CO)[C@@H](O)[C@H](O)[C@H]4NC(C)=O)[C@H](O)[C@H]3NC(C)=O)[C@H](O)[C@H]2NC(C)=O)[C@@H]1O` (stereo partly drawn) [(GlcNAc)6, chitohexaose (chitin hexasaccharide, beta-1,4-linked N-acetylglucosamine hexamer)], the Kd in assay [1] worked out at 7.16 µM; in assay [2], 6.86 µM; in [3], 37.6 µM; in assay [4] it was 12.2 µM; in [5], 18.8 µM; in assay [6] it was 7.63 µM. In addition, the Kd in assay [7] was 9.2 µM; in assay [8] it was 121 µM; in assay [9], 6.73 µM; in [10], 11.3 µM; in assay [11] it was 17.9 µM; in assay [12], 131 µM. This molecule also came in with a Kd in assay [13] of 44.7 µM.
